In patent EP3418270A1, “NOVEL BIPHENYLSULFOXIMINES AS ALLOSTERIC MODULATORS OF THE DOPAMINE D1 RECEPTOR” (Universidad Complutense De Madrid, priority 2017, dated 2018):

Experiments:
[1] = biological target: T1, human dopamine D1 receptor (Homo sapiens, UniProt P21728); test: Agonist effect at human dopamine D1 receptors: cAMP (HTRF) in SK-N-MC cells without dopamine; type: cell-based; set-up: endogenously expressed human D1 receptors in SK-N-MC cell line; host or cells: SK-N-MC human neuroblastoma cells; conditions: in the absence of dopamine, cAMP (Figure 2)
T1 sequence (P21728 whole entry): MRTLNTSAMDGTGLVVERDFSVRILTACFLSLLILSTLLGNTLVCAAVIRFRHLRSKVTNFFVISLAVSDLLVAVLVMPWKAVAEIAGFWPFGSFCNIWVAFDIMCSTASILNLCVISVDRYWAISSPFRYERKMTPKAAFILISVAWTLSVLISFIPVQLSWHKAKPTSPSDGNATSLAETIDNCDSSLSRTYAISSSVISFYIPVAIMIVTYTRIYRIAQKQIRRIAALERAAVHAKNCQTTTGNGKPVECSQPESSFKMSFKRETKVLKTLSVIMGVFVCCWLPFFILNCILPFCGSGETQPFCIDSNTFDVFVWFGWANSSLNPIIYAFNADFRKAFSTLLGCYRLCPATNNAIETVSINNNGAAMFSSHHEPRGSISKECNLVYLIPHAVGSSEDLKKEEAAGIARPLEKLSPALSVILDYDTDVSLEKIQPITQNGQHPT
Protocol: SK-N-MC cells seeded into a black 96-well plate (1×10^4 cells/well) in Optimem containing 500 µM IBMX were treated with the test compounds for 15 min at 25°C. Treated cells were lysed and the cAMP concentration was measured by homogeneous time-resolved fluorescence energy transfer (HTRF; Cisbio Kit). HTRF was read in a Tecan M1000 Genius Pro reader (λexcitation = 320 nm, λemission = 620 nm and 665 nm, 30 flashes).
(§1) Data were normalized to dopamine maximum effect and fitted to a 4-parameter logistic equation Prism v2.1 (GraphPad Inc).

human D4 receptors = biological target: T2, human D4 receptors (Homo sapiens, UniProt P21917); test: Functional assay at human D4 receptors: PatHunter Beta-arrestin express GPCR assay; type: cell-based; conditions: beta-arrestin translocation, Figure 5
T2 sequence (P21917 1-419): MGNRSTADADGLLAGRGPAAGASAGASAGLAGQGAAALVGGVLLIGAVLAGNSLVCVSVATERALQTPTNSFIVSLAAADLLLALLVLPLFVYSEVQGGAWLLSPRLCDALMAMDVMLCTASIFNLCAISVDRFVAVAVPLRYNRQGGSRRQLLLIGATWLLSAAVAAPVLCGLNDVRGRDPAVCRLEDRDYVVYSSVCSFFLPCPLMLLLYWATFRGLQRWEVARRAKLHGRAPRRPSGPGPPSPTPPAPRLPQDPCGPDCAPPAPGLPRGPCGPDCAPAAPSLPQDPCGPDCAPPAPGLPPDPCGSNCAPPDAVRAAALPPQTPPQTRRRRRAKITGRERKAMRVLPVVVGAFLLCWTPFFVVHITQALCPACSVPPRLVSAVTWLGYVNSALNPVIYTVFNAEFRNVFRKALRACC
Protocol: (§2) Functional studies at both human D3 and D4 receptors receptors were carried by employing a PatHunter Beta-arrestin express GPCR assay kit from DiscoverX. Cells were plated maintained for 48 h at 37°C in a 5% CO2 atmosphere in cell plating reagen t provided in the kit.
(§3) Cells were treated with the test compounds for 30 min at 37°C and dopamine was added to the corresponding wells and incubated for additional 90 min at 37°C. Cells were then treated with the working detection solution provided with the kit for 1 h and beta-arrestin translocation was measured by luminescence detection (integration time=500 ms) in a Tecan M1000 Genius Pro reader.
as §1

[2] = biological target: T3, recombinant human D2 receptors (Homo sapiens, UniProt P14416); test: Functional assay at human D2 receptors: cAMP (HTRF), forskolin-stimulated CHO cells; type: cell-based; conditions: Figure 3
T3 construct: expressed in transfected cells; host or cells: CHO cell line, stably transfected in-house
T3 sequence (P14416 whole entry): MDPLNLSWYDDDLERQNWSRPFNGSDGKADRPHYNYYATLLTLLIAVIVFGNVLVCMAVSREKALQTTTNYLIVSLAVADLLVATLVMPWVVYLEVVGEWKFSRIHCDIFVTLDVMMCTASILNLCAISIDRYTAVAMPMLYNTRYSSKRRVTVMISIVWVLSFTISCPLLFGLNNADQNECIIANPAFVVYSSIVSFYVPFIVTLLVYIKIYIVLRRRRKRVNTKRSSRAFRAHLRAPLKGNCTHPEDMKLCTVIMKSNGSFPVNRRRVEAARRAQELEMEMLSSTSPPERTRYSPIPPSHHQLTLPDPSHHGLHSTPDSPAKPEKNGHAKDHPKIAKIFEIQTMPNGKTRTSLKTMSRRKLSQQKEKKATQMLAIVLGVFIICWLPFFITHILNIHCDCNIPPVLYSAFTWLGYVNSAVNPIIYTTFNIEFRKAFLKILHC
Protocol: Functional studies at D2 receptors were carried out in recombinant human D2 receptors stably transfected in-house in a CHO cell line. Cells were thawed and seeded into a 96-well plate (5×10^3 cells/well) in Optimem containing 500 µM IBMX.
(§4) Cells were treated with the test compounds for 5 min at 37°C and dopamine was added to the corresponding wells and incubated for additional 10 min at 37°C. After this time cells were treated with 10 µM forskolin for 5 min at 37°C. Treated cells were lysed and the cAMP concentration was measured by homogeneous time-resolved fluorescence energy transfer (HTRF; Cisbio Kit). HTRF was read in a Tecan M1000 Genius Pro reader (λexcitation = 320 nm, λemission = 620 nm and 665 nm, 30 flashes).
as §1

human D1 receptors = biological target: T4, human D1 receptors (Homo sapiens, UniProt P21728); test: Allosteric modulation of human dopamine D1 receptors: dopamine-induced cAMP production (HTRF) in SK-N-MC cells; type: cell-based; conditions: for Potentiation (%) at 5 µM / Potentiation (%) at 10 µM: potentiation of dopamine Emax; for Potentiation (%) at 5 µM: compound at 5 µM (values marked *); for Potentiation (%) at 10 µM: compound at 10 µM
T4 construct: endogenously expressed human D1 receptors in SK-N-MC cell line; host or cells: SK-N-MC human neuroblastoma cells
T4 sequence (P21728 whole entry): as the sequence (P21728 whole entry) above
Protocol: Functional studies at human D1 receptors were carried out in endogenously expressed human D1 receptors in SK-N-MC cell line (ATCC). SK-N-MC cells were thawed and seeded into a black 96-well plate (1×10^4 cells/well) in Optimem containing 500 µM IBMX.
as §4, with “for 15” for “for 5”, “at 25°C” for “at 37°C”, “additional 15” for “additional 10”, “at 25°C.” for “at 37°C. After this time cells were treated with 10 µM forskolin for 5 min at 37°C.”
as §1
If the observed effect is dose-dependent, compounds were then tested in the cAMP assay, this time maintaining a fixed concentration of dopamine (=EC70) while increasing the concentration of the compound, and the potentiation of the dopamine effect was measured.

human D5 receptors = human D5 receptors (Homo sapiens, UniProt P21918); test: Functional assay at human D5 receptors: cAMP Hunter express DRD5 assay; type: cell-based; conditions: cAMP formation, Figure 6
human D5 receptors, sequence (P21918 whole entry): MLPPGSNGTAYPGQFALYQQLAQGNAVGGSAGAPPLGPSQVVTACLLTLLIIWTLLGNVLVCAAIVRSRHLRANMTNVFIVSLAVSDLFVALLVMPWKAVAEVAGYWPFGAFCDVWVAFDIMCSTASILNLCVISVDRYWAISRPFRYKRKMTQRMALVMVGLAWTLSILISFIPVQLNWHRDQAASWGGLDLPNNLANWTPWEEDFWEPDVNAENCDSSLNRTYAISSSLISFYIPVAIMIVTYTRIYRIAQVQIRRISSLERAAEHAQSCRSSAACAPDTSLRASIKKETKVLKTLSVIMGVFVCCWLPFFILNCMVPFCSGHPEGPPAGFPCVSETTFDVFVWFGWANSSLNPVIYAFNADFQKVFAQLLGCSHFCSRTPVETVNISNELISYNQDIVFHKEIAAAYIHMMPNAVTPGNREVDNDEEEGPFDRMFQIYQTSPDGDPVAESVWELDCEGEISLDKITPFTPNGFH
Protocol: Functional studies at human D5 receptors receptors were carried by employing a cAMP Hunter express DRD5 assay kit from DiscoverX. Cells were plated maintained for 24 h at 37°C in a 5% CO2 atmosphere in cell plating reagent provided in the kit.
as §3, with “15” for “30”, “30” for “90”, “cAMP” for “working”, “then cAMP solution A was added to each well and incubated for 3 h at RT. cAMP formation” for “beta-arrestin translocation”
as §1

human D3 receptors = human D3 receptors (Homo sapiens, UniProt P35462); test: Functional assay at human D3 receptors: PatHunter Beta-arrestin express GPCR assay; type: cell-based; conditions: beta-arrestin translocation, Figure 4
human D3 receptors, sequence (P35462 whole entry): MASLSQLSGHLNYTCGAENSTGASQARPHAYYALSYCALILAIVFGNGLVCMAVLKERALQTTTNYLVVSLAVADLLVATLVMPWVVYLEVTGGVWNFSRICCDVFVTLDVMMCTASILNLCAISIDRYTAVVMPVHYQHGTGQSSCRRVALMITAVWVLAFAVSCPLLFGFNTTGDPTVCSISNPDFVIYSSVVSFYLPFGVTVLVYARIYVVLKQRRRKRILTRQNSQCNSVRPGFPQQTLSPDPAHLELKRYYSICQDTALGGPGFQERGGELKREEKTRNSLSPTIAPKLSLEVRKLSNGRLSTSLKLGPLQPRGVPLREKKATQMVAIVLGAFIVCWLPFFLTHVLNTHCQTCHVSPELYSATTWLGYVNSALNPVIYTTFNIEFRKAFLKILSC
Protocol: as §2, §3, §1

[3] = biological target: T1, human dopamine D1 receptor; test: Radioligand binding assay at human D1 receptors ([3H]SCH23390 displacement, membranes); set-up: purchased Perkin Elmer; conditions: 0.7 nM [3H]SCH23390, orthosteric site
Protocol: Assays were carried out by using plasma membranes (12 µg/well) expressing human dopamine D1 receptor (Perkin Elmer). Membranes were incubated in a Multiscreen FC 96-well plate (Millipore) with 0.7 nM [^3H]SCH23390 (Perkin Elmer) and increasing amounts of the test compound in assay buffer (50 mM Tris-HCl, 5 mM MgCl2; pH=7.4) for 1 h at 27°C. After this time the well content was filtered through a Millipore manifold and membranes washed 4 times with assay buffer. Plate was dried and radioactivity was measured in a Microbeta Trilux liquid scintillation reader (Perkin-Elmer). Non-specific binding was determined in the presence of 1 µM (+)-butaclamol.
Data were normalized to percentage of specific binding and fitted to a 4-parameter logistic equation with Prism v2.1 (GraphPad Inc).

Compound: CS(=N)(=O)c1ccc(-c2ccccc2OCF)cc1 (racemic) [Ik, 2-(Fluoromethoxy)-4'-(S-methylsulfonimidoyl)biphenyl]
- intrinsic agonist activity [1]: no potentiation
- functional subtype selectivity against D4 receptor (human D4 receptors): functional subtype selectivity
- functional subtype selectivity against dopamine D2 receptor [2]: functional subtype selectivity
- EC50 (human D1 receptors; potency in the presence of dopamine (fixed concentration = EC70)): 60 nM
- Potentiation (%) at 5 µM (human D1 receptors): 35%
- Potentiation (%) at 10 µM (human D1 receptors): 55%
- functional subtype selectivity against D5 receptor (human D5 receptors): functional subtype selectivity
- functional subtype selectivity against D3 receptor (human D3 receptors): functional subtype selectivity
- inhibition at 10 µM [3]: 36%

Compound: C[S@@](=N)(=O)c1ccc(-c2ccccc2OCF)cc1 [(R)-Ik, (R)-2-(Fluoromethoxy)-4'-(S-methylsulfonimidoyl)biphenyl]
- intrinsic agonist activity [1]: no potentiation
- functional subtype selectivity against D4 receptor (human D4 receptors): functional subtype selectivity
- functional subtype selectivity against dopamine D2 receptor [2]: functional subtype selectivity
- Potentiation (%) at 5 µM (human D1 receptors): 63%
- functional subtype selectivity against D5 receptor (human D5 receptors): functional subtype selectivity
- functional subtype selectivity against D3 receptor (human D3 receptors): functional subtype selectivity
- inhibition at 10 µM [3]: 12%

Compound: C[S@](=N)(=O)c1ccc(-c2ccccc2OCF)cc1 [(S)-Ik, (S)-2-(Fluoromethoxy)-4'-(S-methylsulfonimidoyl)biphenyl]
- intrinsic agonist activity [1]: no potentiation
- functional subtype selectivity against D4 receptor (human D4 receptors): functional subtype selectivity
- functional subtype selectivity against dopamine D2 receptor [2]: functional subtype selectivity
- Potentiation (%) at 5 µM (human D1 receptors): 47%
- functional subtype selectivity against D5 receptor (human D5 receptors): functional subtype selectivity
- functional subtype selectivity against D3 receptor (human D3 receptors): functional subtype selectivity
- inhibition at 10 µM [3]: 6%

Compound: CS(=N)(=O)c1ccc(-c2ccccc2OC(F)F)cc1 (stereo not drawn) [Ia, 2-(Difluoromethoxy)-4'-(S-methylsulfonimidoyl)biphenyl]
- Potentiation (%) at 10 µM (human D1 receptors): 27%

Compound: CN=S(C)(=O)c1ccc(-c2ccccc2OC(F)F)cc1 (stereo not drawn) [Ib, 2-(Difluoromethoxy)-4'-(N,S-dimethylsulfonimidoyl)biphenyl]
- Potentiation (%) at 10 µM (human D1 receptors): 64%

Compound: CCS(=N)(=O)c1ccc(-c2ccccc2OC(F)F)cc1 (stereo not drawn) [Ic, 2-(Difluoromethoxy)-4'-(S-ethylsulfonimidoyl)biphenyl]
- Potentiation (%) at 10 µM (human D1 receptors): 39%

Compound: CS(=N)(=O)c1ccc(-c2ccccc2OC(F)F)cc1Cl (stereo not drawn) [Id, 3'-Chloro-2-(difluoromethoxy)-4'-(S-methylsulfonimidoyl)biphenyl]
- Potentiation (%) at 10 µM (human D1 receptors): 25%

Compound: CN=S(C)(=O)c1ccc(-c2ccccc2OC(F)F)cc1Cl (stereo not drawn) [Ie, 3'-Chloro-2-(difluoromethoxy)-4'-(N,S-dimethylsulfonimidoyl)biphenyl]
- Potentiation (%) at 10 µM (human D1 receptors): 33%

Compound: CS(=N)(=O)c1ccc(-c2ccccc2OC(F)(F)F)cc1Cl (stereo not drawn) [If, 3'-Chloro-4'-(S-methylsulfonimidoyl)-2-(trifluoromethoxy)biphenyl]
- Potentiation (%) at 10 µM (human D1 receptors): 30%

Compound: CN=S(C)(=O)c1ccc(-c2ccccc2OC(F)(F)F)cc1Cl (stereo not drawn) [Ig, 3'-Chloro-2-(trifluoromethoxy)-4'-(N,S-dimethylsulfonimidoyl)biphenyl]
- Potentiation (%) at 10 µM (human D1 receptors): 27%

Compound: CN=S(C)(=O)c1ccc(-c2ccccc2OCF)cc1 (stereo not drawn) [Ih, 4'-(N,S-Dimethylsulfonimidoyl)-2-(fluoromethoxy)biphenyl]
- Potentiation (%) at 10 µM (human D1 receptors): 30%

Compound: CCS(=N)(=O)c1ccc(-c2ccccc2OCF)cc1 (stereo not drawn) [Ii, 2-(Fluoromethoxy)-4'-(S-ethylsulfonimidoyl)biphenyl]
- Potentiation (%) at 10 µM (human D1 receptors): 54%

Compound: CN=S(C)(=O)c1ccc(-c2ccccc2OCF)cc1Cl (stereo not drawn) [Ij, 3'-Chloro-2-(fluoromethoxy)-4'-(N,S-dimethylsulfonimidoyl)biphenyl]
- Potentiation (%) at 10 µM (human D1 receptors): 35%
